Test results from patent EP0367514A2, “Human leukocyte elastase inhibitors and methods for producing and using same” (UNIVERSITY OF KENTUCKY RESEARCH FOUNDATION, priority 1988, dated 1990).

Target: T1, enzyme elastase, e.g., human leukocyte elastase (HLE) and porcine pancreatic elastase (PPE) (Homo sapiens, UniProt P08246)
T1 sequence (P08246 30-247): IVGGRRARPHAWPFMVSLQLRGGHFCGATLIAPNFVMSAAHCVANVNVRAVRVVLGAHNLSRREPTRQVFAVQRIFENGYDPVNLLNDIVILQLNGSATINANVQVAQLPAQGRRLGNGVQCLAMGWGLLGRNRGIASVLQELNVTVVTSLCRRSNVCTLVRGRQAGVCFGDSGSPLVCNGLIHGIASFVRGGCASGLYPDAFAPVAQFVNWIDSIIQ
Experiment: Elastase enzyme inhibitory studies (Ki of peptidyl carbamates)
Format: biochemical
Description: These studies are conducted to show the activities of some of the compounds of this invention as inhibitors of various forms of the enzyme elastase.
All enzyme assays are performed spectrophotometrically at 25 C using CARY 219 or 2200 Vanan Spectrometers. The activity of PPE is measured using 5-Boc-L-alinlne p-mtrophenyl ester (Boc-Ala-ONP), as the substrate and monitoring the absorbance at 347.5 nm (p-nitrophenol). The activity of HLE is measured using methoxy succinyl-L-analyl-L-alanyl L-prolyl-L-valine pnitroanilide (MeO-Suc-Ala-Ala-Pro-Val-NA), as the substrate and following the absorbance at 410 nm (pnitroaniline). Active inhibitors are tested against other serine dependent proteolytic enzymes such as tryps in and chymotryps in using their respective substrates. N-benzoyl-L-arginine ethyl ester, N-benzoyl-L-tyrosine ethyl ester and monitonng the absorbance at 253 and 256 respectively. […]

| Ki (inhibitor dissociation constant) | SMILES |
| --- | --- |
| 20 nM | COC(=O)CCC(=O)NC(C)C(=O)NC(CCCCNC(=O)OCc1ccccc1)C(=O)N1CCCC1C(=O)CN(C(=O)Sc1nnnn1-c1ccccc1)C(C)C (stereo not drawn) [PC5, S-(1-phenyl-5-tetrazoyl)-N-[methoxysuccinyl-alanyl-(N∈-Carbobenzoxyl)lysylprolylmethyl]-N-isopropyl-thio carbamate] |
| 3 nM | COC(=O)CCC(=O)NC(CCCNC(=O)OCc1ccccc1)C(=O)NC(C)C(=O)N1CCCC1C(=O)CN(C(=O)Sc1nnnn1-c1ccccc1)C(C)C (stereo not drawn) [PC6, S-(1-phenyl-5-tetrazoyl)-N-[methoxysuccinyl-(N -carbobenzoyl)ornithylalanyl(prolylmethyl)-N-isopropylthio carbamate] |
